In brackets after ≈: the same amount, converted by molar mass. Read-outs that look alike come from different tables or passages of the source.
How the values were obtained:
[1] = test system: Staphylococcus aureus IFO 12732; test: Minimum inhibitory concentration, agar plate for measuring susceptibility; assay type: cell-based; conditions: for MIC: Staphylococcus aureus, IFO12732, read-out: Minimum Inhibitory Concentration CaO, Staphylococcus aureus IFO 12732 (Gram-positive bacteria)
[2] = test system: Escherichia coli IFO 3301; test: as above; assay type: cell-based; conditions: for MIC: Escherichia coli, IFO3301, read-out: Minimum Inhibitory Concentration CaO, Escherichia coli IFO 3301 (Gram-negative bacteria)
[3] = test system: Pseudomonas aeruginosa IFO 13275; test: Antibacterial spectrum, MIC on Muller Hinton Agar; assay type: cell-based; conditions: Comparison 1 is a reference value (suspension at not less than 1400 μg)
[4] = cited from earlier work
[5] = test system: Lactobacillus plantarum (lactic acid bacterium) IFO 3070; test: Antibacterial spectrum, MIC on Brain Heart Infusion Agar; assay type: cell-based; conditions: Comparison 1 is a reference value
[6] = test system: Saccharomyces cerevisiae IFO 1950; test: Antibacterial spectrum, MIC on Sabouraud Glucose agar medium; assay type: cell-based; conditions: Comparison 1 is a reference value
Experimental: […] Additionally, as to the other α-amino acids used as the raw materials, flat plates for measuring susceptibility each of which contains a 500 to 20,000 μg/ml α-amino acid were prepared. […] The bacterial liquid for inoculation was drawn In lines and painted 1 to 2 cm on each flat plate for measuring susceptibility with a plastic loop, and incubated at 35° C. 1° C. for 18 to 20 hours. The lowest concentrations in which the painted parts were blocked to grow were defined as the minimum bacteriostasis concentrations of the antibacterial compositions, and the calcium oxide, the calcium hydroxide, and the α-amino acids used as the raw materials in the embodiments 1 through 16.
The minimum inhibitory concentrations to these typical kinds of bacteria were measured, however, the antibacterial compositions of the present invention are not to be restricted to the kinds of bacteria shown in the embodiments. Although the measuring method was similar to that of the embodiment 17, as the culture media for measuring susceptibility, Muller Hinton Agar (Difco) was used for enterococcus, cereus, salmonella, and pseudomonas aeruginosa; Brain Heart Infusion Agar (Difco) was used for lactobacillus; GAM agar medium (Nissui Pharmaceutical Co., Ltd.) was used for welsh; and Sabouraud Glucoss agar medium (Eiken Chemical Co., Ltd.) was used for saccharomyces.

[7] = test system: Salmonella entriditis IFO 3313; test: Antibacterial spectrum, MIC on Muller Hinton Agar; assay type: cell-based, Salmonella enteritidis; conditions: Comparison 1 is a reference value (suspension at not less than 1400 μg)
[8] = test system: Bacillus cereus IFO 13494; test: Antibacterial spectrum, MIC on Muller Hinton Agar; assay type: cell-based; conditions: Comparison 1 is a reference value (suspension at not less than 1400 μg)
[9] = test system: Clostridium perfingens NCTC 8283; assay type: cell-based, Clostridium perfringens; conditions: Comparison 1 is a reference value (suspension at not less than 1400 μg)
[10] = test system: Enterococcus faecalis IFO 129B4; test: Antibacterial spectrum, MIC on Muller Hinton Agar; assay type: cell-based; conditions: Comparison 1 is a reference value (suspension at not less than 1400 μg)
[11] = Antibacterial effect, test not described
[12] = Table 2, raw materials, amino acid plates held 500 to 20,000 μg/ml α-amino acid

Compound	MIC [1, 12] [µg/mL]	MIC [2, 12] [µg/mL]	other results
NCC(=O)O [Comparison 3, glycine]	> 10000	> 10000	–
[O]=[Ca] [Comparison 1, calcium oxide]	–	–	Minimum Inhibitory Concentration CaO, Pseudomonas aeruginosa [3]: 2500 µg/mL; dissolves in water ([4]; 20° C.): 0.14 wt %; water-solubility ([4]; at 20° C.): 1400 μg/gH2O; Minimum Inhibitory Concentration CaO, Lactobachillus faecalis [5]: 313 µg/mL; Minimum Inhibitory Concentration CaO, Saccgaromyces cervisiae [6]: 625 µg/mL; Minimum Inhibitory Concentration CaO, Salmonella enteritidis [7]: 2500 µg/mL; Minimum Inhibitory Concentration CaO, Bacilluscereus [8]: 2500 µg/mL; Minimum Inhibitory Concentration CaO, Clostridium perfringens [9]: 5000 µg/mL; Minimum Inhibitory Concentration CaO; Staphylococcus aureus IFO 12732 (Gram-positive bacteria) [1, 12]: 1000 µg/mL; Minimum Inhibitory Concentration CaO; Escherichia coli IFO 3301 (Gram-negative bacteria) [2, 12]: 1250 µg/mL; Minimum Inhibitory Concentration CaO, Enterococcus faecalis [10]: 5000 µg/mL
C[C@@H](O)[C@H](N)C(=O)O [Comparison 8, threonine]	> 20000	> 20000	–
CSCC[C@H](N)C(=O)O [Comparison 10, Methionine]	> 10000	> 10000	–
N[C@@H](CCC(=O)[O-])C(=O)[O-].[Ca+2] [calcium glutamate]	–	–	antibacterial effect / antibacterial property [11]: did not have antibacterial property
[Ca+2].[OH-].[OH-] [Comparison 2, calcium hydroxide]	–	–	Minimum Inhibitory Concentration CaO; Staphylococcus aureus IFO 12732 (Gram-positive bacteria) [1]: 850 µg/mL; Minimum Inhibitory Concentration CaO; Escherichia coli IFO 3301 (Gram-negative bacteria) [2]: 900 µg/mL
N[C@@H](Cc1c[nH]cn1)C(=O)O [Comparison 14, hystidine]	–	–	Minimum Inhibitory Concentration CaO; Staphylococcus aureus IFO 12732 (Gram-positive bacteria) [1, 12]: >20000 µg/mL; Minimum Inhibitory Concentration CaO; Escherichia coli IFO 3301 (Gram-negative bacteria) [2, 12]: >20000 µg/mL
C[C@H](N)C(=O)O [Comparison 4, alanine]	> 10000	> 10000	–
CC[C@H](C)[C@H](N)C(=O)O [Comparison 7, isoleucine]	> 10000	> 10000	–
NC(=O)CC[C@H](N)C(=O)O [Comparison 12, glutamine]	> 20000	> 20000	–
CC(C)[C@H](N)C(=O)O [Comparison 5, valine]	> 10000	> 10000	–
CC(C)C[C@H](N)C(=O)O [Comparison 6, leucine]	> 10000	> 10000	–
N[C@@H](CC(=O)[O-])C(=O)[O-].[Ca+2] [aspartate calcium]	–	–	antibacterial effect / antibacterial property [11]: did not have antibacterial property
N[C@@H](CSSC[C@H](N)C(=O)O)C(=O)O [Comparison 9, cystine]	20000 (≈ 83.2 mM)	> 20000	–
NC(=O)C[C@H](N)C(=O)O [Comparison 11, asparagine]	> 20000	> 20000	–

— US20080146641A1, “ANTIBACTERIAL COMPOSITION” (priority 2001, published 2008)
